SMILES strings stand for the structures. Positions of bridges follow the written chain, without caps; N, C: chain ends. Non-standard residues stand in square brackets, D forms with d. Residues, ends and D or L forms follow the SMILES beside them. Phe(4-NO2) = N[C@@H](Cc1ccc([N+](=O)[O-])cc1)C(=O)O; Bip = N[C@@H](Cc1ccc(-c2ccccc2)cc1)C(=O)O; Tyr(3-I) = N[C@@H](Cc1ccc(O)c(I)c1)C(=O)O; dBip = N[C@H](Cc1ccc(-c2ccccc2)cc1)C(=O)O; dDip = N[C@@H](C(=O)O)C(c1ccccc1)c1ccccc1; Phe(4-Cl) = N[C@@H](Cc1ccc(Cl)cc1)C(=O)O; Dip = N[C@H](C(=O)O)C(c1ccccc1)c1ccccc1; Phe(3-F) = N[C@@H](Cc1cccc(F)c1)C(=O)O; Phe(4-F) = N[C@@H](Cc1ccc(F)cc1)C(=O)O; 2Nal = N[C@@H](Cc1ccc2ccccc2c1)C(=O)O; Phe(2-F) = N[C@@H](Cc1ccccc1F)C(=O)O; Igl = N[C@H](C(=O)O)C1Cc2ccccc2C1; 3Pal = N[C@@H](Cc1cccnc1)C(=O)O; Nle = CCCC[C@H](N)C(=O)O

By IC50 is commonly meant the point on the concentration scale where inhibition reaches its midpoint.

This experiment deals with rat pituitary cells. Type of experiment: cell-based. The conditions noted are these: 3 h. From the text: Bioassay on the In Vitro Release of Growth Hormone
(a) Rat Pituitary Cell Dispersion
Pituitaries from adult Charles River CD male rats (Wilmington, Mass.) housed under controlled conditions were dispersed and cultured using aseptic technique by modification of previously described methods (Hoefer, M. T., et al., Mol. Cell. Endocrinol. 35:229 (1984); Ben-Jonathan, N., et al., Methods Enzymol. 103:249 (1983); and Heiman, M. L., et al., Endocrinology 116:410 (1985)). Pituitaries were removed from sacrificed rats, sectioned, and then placed into a siliconized, liquid scintillation vial containing 2 ml 0.2% trypsin (Worthington Biochemicals, Freehold, N.J.) in sterile-filtered Krebs-Ringer bicarbonate buffer supplemented with 1% bovine serum albumin, 14 mM glucose, modified Eagle medium (MEM) vitamin solution, and MEM amino acids (Gibco Laboratories, Grand Island, N.Y.) (KRBGA). All glassware was siliconized as described by Sayers, et al., Endocrinology 88:1063 (1971). The fragments were incubated in a water bath for 35 min at 37° C. with agitation. The vial contents then were poured into a scintillation vial containing 2 ml 0.1% DNase (Sigma Chemical Co., St. Louis, Mo.) in KRBGA and incubated for 2 min at 37° C. with agitation. After incubation, the tissue was decanted into a 15 ml centrifuge tube and allowed to settle. Medium was discarded, and pituitary sections were washed 3 times with 1 ml fresh-KRBGA. The cells were then dispersed in 2 ml 0.05% LBI (lima bean trypsin inhibitor, Worthington Biochemicals) by gently drawing the fragments into and expelling them out of a siliconized, fire polished Pasteur pipette. Dispersed cells were then filtered through a 630 μm diameter Nylon mesh (Tetko, Elmsford, N.Y.) into a fresh 15 ml centrifuge tube. An additional 2 ml of 0.05% LBI solution was used to rinse the first tube and was transferred to the second tube with filtering.
The dispersed cells were then further diluted with approximately 15 ml sterile-filtered Dulbecco's modified Eagle medium (GIBCO), which was supplemented with 2.5% fetal calf serum (GIBCO), 3% horse serum (GIBCO), 10% fresh rat serum (stored on ice for no longer than 1 hr) from the pituitary donors, 1% MEM non-essential amino acids (GIBCO), and gentamycin (10 ng/ml; Sigma) and nystatin (10,000 U/ml; GIBCO). The cells were poured into a 50 ml round-bottomed glass extraction flask with a large diameter opening and then randomly plated at a density of approximately 200,000 cells per well (Co-star cluster 24; Rochester Scientific Co., Rochester, N.Y.). The plated cells were maintained in the above Dulbecco's medium in a humidified atmosphere of 95% air and 5% CO2 at 37° C. for 4-5 days.
(c) Experimental Incubation and IC50 Determination
In preparation for a hormone challenge, the cells were washed 3 times with medium 199 (GIBCO) to remove old medium and floating cells. Each treatment well contained a total volume of 1 ml medium 199 containing 1% BSA (fraction V; Sigma) with treatments as described below. Each antagonist candidate was tested using a single 24-well cell culture plate. Each treatment was performed in triplicate. Each plate contained 8 treatment groups: one 1 nM growth hormone releasing factor (GRF) (1-29)NH2-stimulated control group; one 1 nM somatostatin-inhibited control group in the presence of 1 nM GRF(1-29)NH2; and 6 doses of a given antagonist in the presence of both 1 nM SRIF and 1 nM GRF per plate. After 3 hrs at 37° C. in a air/carbon dioxide atmosphere (95/5%), the medium was removed and stored at −20° C. until radioimmunoassayed for growth hormone content. IC50's of each antagonist versus 1 nM SRIF were calculated using a computer program (SigmaPlot, Jandel Scientific, San Rafael, Calif.) with the maximum response constrained to the value of the 1 nM GRF(1-29)NH2-stimulated control.
`CCCC[C@@H]1NC(=O)[C@H](CCCCN)NC(=O)[C@@H](Cc2c[nH]c3ccccc23)NC(=O)[C@H](Cc2cccnc2)NC(=O)[C@H](NC(=O)[C@@H](N)Cc2ccc3ccccc3c2)CSSC[C@@H](C(=O)N[C@@H](Cc2ccc3ccccc3c2)C(N)=O)NC1=O` [Analog No. 31, H2-β-Nal-D-Cys-Pal-D-Trp-Lys-Nle-Cys-β-Nal-NH2] (H-[2Nal][dC][3Pal][dW]K[Nle]C[2Nal]-NH2; disulfide 2-7): inhibition was half-maximal at 0.0038 µM (IC50).

As to `CC[C@H](C)[C@@H]1NC(=O)[C@H](CCCCN)NC(=O)[C@@H](Cc2c[nH]c3ccccc23)NC(=O)[C@H](Cc2cccnc2)NC(=O)[C@H](NC(=O)[C@@H](N)Cc2ccc3ccccc3c2)CSSC[C@@H](C(=O)N[C@@H](Cc2ccc3ccccc3c2)C(N)=O)NC1=O` [Analog No. 32, H2-β-Nal-D-Cys-Pal-D-Trp-Lys-Ile-Cys-β-Nal-NH4] (H-[2Nal][dC][3Pal][dW]KIC[2Nal]-NH2; disulfide 2-7), 0.012 µM corresponded to half-maximal inhibition (IC50).

Regarding `NCCCC[C@@H]1NC(=O)[C@@H](Cc2c[nH]c3ccccc23)NC(=O)[C@H](Cc2cccnc2)NC(=O)[C@H](NC(=O)[C@@H](N)Cc2ccc3ccccc3c2)CSSC[C@@H](C(=O)N[C@@H](Cc2ccc3ccccc3c2)C(N)=O)NC(=O)CNC1=O` [Analog No. 33, H2-β-Nal-D-Cys-Pal-D-Trp-Lys-Gly-Cys-β-Nal-NH2] (H-[2Nal][dC][3Pal][dW]KGC[2Nal]-NH2; disulfide 2-7), the IC50 turned out to be 1.5 µM.

The compound `C[C@@H]1NC(=O)[C@H](CCCCN)NC(=O)[C@@H](Cc2c[nH]c3ccccc23)NC(=O)[C@H](Cc2cccnc2)NC(=O)[C@H](NC(=O)[C@@H](N)Cc2ccc3ccccc3c2)CSSC[C@@H](C(=O)N[C@@H](Cc2ccc3ccccc3c2)C(N)=O)NC1=O` [Analog No. 34, H2-β-Nal-D-Cys-Pal-D-Trp-Lys-Ala-Cys-β-Nal-NH2] (H-[2Nal][dC][3Pal][dW]KAC[2Nal]-NH2; disulfide 2-7) yielded a half-inhibitory concentration (IC50) of 0.42 µM.

`CC(C)C[C@@H]1NC(=O)[C@H](CCCCN)NC(=O)[C@@H](Cc2c[nH]c3ccccc23)NC(=O)[C@H](Cc2cccnc2)NC(=O)[C@H](NC(=O)[C@@H](N)Cc2ccc3ccccc3c2)CSSC[C@@H](C(=O)N[C@@H](Cc2ccc3ccccc3c2)C(N)=O)NC1=O` [Analog No. 35, H2-β-Nal-D-Cys-Pal-D-Trp-Lys-Leu-Cys-β-Nal-NH2] (H-[2Nal][dC][3Pal][dW]KLC[2Nal]-NH2; disulfide 2-7) yielded a half-maximal inhibitory concentration (IC50) of 0.052 µM.

Consider `CC[C@H](C)[C@@H]1NC(=O)[C@H](CCCCN)NC(=O)[C@@H](Cc2c[nH]c3ccccc23)NC(=O)[C@H](Cc2ccc(O)cc2)NC(=O)[C@H](NC(=O)[C@@H](N)Cc2ccc(-c3ccccc3)cc2)CSSC[C@@H](C(=O)N[C@@H](Cc2ccc(-c3ccccc3)cc2)C(N)=O)NC1=O` [Analog No. 36, H2-Bip-D-Cys-Tyr-D-Trp-Lys-Ile-Cys-Bip-NH2] (H-[Bip][dC]Y[dW]KIC[Bip]-NH2; disulfide 2-7), for which the concentration for half-maximal inhibition (IC50) is 1.03 µM.

`CC(C)[C@@H]1NC(=O)[C@H](CCCCN)NC(=O)[C@@H](Cc2c[nH]c3ccccc23)NC(=O)[C@H](Cc2ccc(O)cc2)NC(=O)[C@H](NC(=O)[C@H](N)Cc2ccc(-c3ccccc3)cc2)CSSC[C@@H](C(=O)N[C@@H](Cc2ccc3ccccc3c2)C(N)=O)NC1=O` [Analog No. 37, H2-D-Bip-D-Cys-Tyr-D-Trp-Lys-Val-Cys-β-Nal-NH2] (H-[dBip][dC]Y[dW]KVC[2Nal]-NH2; disulfide 2-7) displayed an IC50 of 0.78 µM.

Regarding `CC(C)[C@@H]1NC(=O)[C@H](CCCCN)NC(=O)[C@@H](Cc2c[nH]c3ccccc23)NC(=O)[C@H](Cc2c[nH]cn2)NC(=O)[C@H](NC(=O)[C@@H](N)Cc2ccc(F)cc2)CSSC[C@@H](C(=O)N[C@@H](Cc2ccc(F)cc2)C(N)=O)NC1=O` [Analog No. 38, H2-p-F-Phe-D-Cys-His-D-Trp-Lys-Val-Cys-p-F-Phe-NH2] (H-[Phe(4-F)][dC]H[dW]KVC[Phe(4-F)]-NH2; disulfide 2-7), the 50% inhibitory concentration (IC50) turned out to be 0.11 µM.

Consider `CC(C)[C@@H]1NC(=O)[C@H](CCCCN)NC(=O)[C@@H](Cc2c[nH]c3ccccc23)NC(=O)[C@H](Cc2cccnc2)NC(=O)[C@H](NC(=O)[C@@H](N)Cc2ccc([N+](=O)[O-])cc2)CSSC[C@@H](C(=O)N[C@@H](Cc2ccc(O)cc2)C(N)=O)NC1=O` [Analog No. 39, H2-Npa-D-Cys-Pal-D-Trp-Lys-Val-Cys-Tyr-NH2] (H-[Phe(4-NO2)][dC][3Pal][dW]KVCY-NH2; disulfide 2-7), for which the concentration for half-maximal inhibition (IC50) worked out at 0.034 µM.

`CC(C)[C@@H]1NC(=O)[C@H](CCCCN)NC(=O)[C@@H](Cc2c[nH]c3ccccc23)NC(=O)[C@H](Cc2c[nH]cn2)NC(=O)[C@H](NC(=O)[C@@H](N)Cc2cccc(F)c2)CSSC[C@@H](C(=O)N[C@@H](Cc2cccc(F)c2)C(N)=O)NC1=O` [Analog No. 40, H2-m-F-Phe-D-Cys-His-D-Trp-Lys-Val-Cys-m-F-Phe-NH2] (H-[Phe(3-F)][dC]H[dW]KVC[Phe(3-F)]-NH2; disulfide 2-7) registered an IC50 of 0.11 µM.

For `CC(C)[C@@H]1NC(=O)[C@H](CCCCN)NC(=O)[C@@H](Cc2c[nH]c3ccccc23)NC(=O)[C@H](Cc2c[nH]cn2)NC(=O)[C@H](NC(=O)[C@@H](N)Cc2ccccc2F)CSSC[C@@H](C(=O)N[C@@H](Cc2ccccc2F)C(N)=O)NC1=O` [Analog No. 41, H2-o-F-Phe-D-Cys-His-D-Trp-Lys-Val-Cys-o-F-Phe-NH2] (H-[Phe(2-F)][dC]H[dW]KVC[Phe(2-F)]-NH2; disulfide 2-7), the 50% inhibitory concentration (IC50) came out at 0.21 µM.

`CC(C)[C@@H]1NC(=O)[C@H](CCCCN)NC(=O)[C@@H](Cc2c[nH]c3ccccc23)NC(=O)[C@H](Cc2cccnc2)NC(=O)[C@H](NC(=O)[C@@H](N)Cc2ccc3ccccc3c2)CSSC[C@@H](C(=O)N[C@H](C(N)=O)C(c2ccccc2)c2ccccc2)NC1=O` [Analog No. 42, H2-β-Nal-D-Cys-Pal-D-Trp-Lys-Val-Cys-Dip-NH2] (H-[2Nal][dC][3Pal][dW]KVC[Dip]-NH2; disulfide 2-7) gave an IC50 of 0.044 µM.

Regarding `CC(C)[C@@H]1NC(=O)[C@H](CCCCN)NC(=O)[C@@H](Cc2c[nH]c3ccccc23)NC(=O)[C@H](Cc2cccnc2)NC(=O)[C@H](NC(=O)[C@@H](N)Cc2ccc(Cl)cc2)CSSC[C@@H](C(=O)N[C@@H](Cc2ccc(Cl)cc2)C(N)=O)NC1=O` [Analog No. 43, H2-Cpa-D-Cys-Pal-D-Trp-Lys-Val-Cys-Cpa-NH2] (H-[Phe(4-Cl)][dC][3Pal][dW]KVC[Phe(4-Cl)]-NH2; disulfide 2-7), the half-inhibitory concentration (IC50) worked out at 0.00082 µM.

For the compound `CC(C)[C@@H]1NC(=O)[C@H](CCCCN)NC(=O)[C@@H](Cc2c[nH]c3ccccc23)NC(=O)[C@H](Cc2cccnc2)NC(=O)[C@H](NC(=O)[C@@H](N)C2Cc3ccccc3C2)CSSC[C@@H](C(=O)N[C@H](C(N)=O)C2Cc3ccccc3C2)NC1=O` [Analog No. 44, H2-Igl-D-Cys-Pal-D-Trp-Lys-Val-Cys-Igl-NH2] (H-[Igl][dC][3Pal][dW]KVC[Igl]-NH2; disulfide 2-7), the IC50 came to 0.021 µM.

Compound `CC(C)[C@@H]1NC(=O)[C@H](CCCCN)NC(=O)[C@@H](Cc2c[nH]c3ccccc23)NC(=O)[C@H](Cc2cccnc2)NC(=O)[C@H](NC(=O)[C@@H](N)Cc2ccc3ccccc3c2)CSSC[C@@H](C(=O)N[C@@H](C(N)=O)C(c2ccccc2)c2ccccc2)NC1=O` [Analog No. 45, H2-β-Nal-D-Cys-Pal-D-Trp-Lys-Val-Cys-D-Dip-NH2] (H-[2Nal][dC][3Pal][dW]KVC[dDip]-NH2; disulfide 2-7) registered an IC50 of 0.13 µM.

In turn, `CC(C)[C@@H]1NC(=O)[C@H](CCCCN)NC(=O)[C@@H](Cc2c[nH]c3ccccc23)NC(=O)[C@H](Cc2ccc(O)c(I)c2)NC(=O)[C@H](NC(=O)[C@@H](N)Cc2ccc3ccccc3c2)CSSC[C@@H](C(=O)N[C@@H](Cc2ccc3ccccc3c2)C(N)=O)NC1=O` [Analog No. 46, H2-β-Nal-D-Cys-3-I-Tyr-D-Trp-Lys-Val-Cys-β-Nal-NH2] (H-[2Nal][dC][Tyr(3-I)][dW]KVC[2Nal]-NH2; disulfide 2-7) came in with an IC50 of 0.02 µM.

(Values after patent publication US9133262B2, “Somatostatin antagonists” (Ipsen Pharma S.A.S., priority 1996, dated 2015).)
